For seven compounds, IC50 results are on record in patent US8158622B2, “Pyrrolopyridine-2-carboxylic acid amide inhibitors of glycogen phosphorylase” (Prosidion Limited, priority 2003, dated 2012).

pIC50: −log10 of the molar value.

The target of the experiment is T1, Rabbit muscle glycogen phosphorylase a (Oryctolagus cuniculus, UniProt P00489).
T1 construct: purchased Sigma P1261
T1 sequence (P00489 2-843 limits assumed): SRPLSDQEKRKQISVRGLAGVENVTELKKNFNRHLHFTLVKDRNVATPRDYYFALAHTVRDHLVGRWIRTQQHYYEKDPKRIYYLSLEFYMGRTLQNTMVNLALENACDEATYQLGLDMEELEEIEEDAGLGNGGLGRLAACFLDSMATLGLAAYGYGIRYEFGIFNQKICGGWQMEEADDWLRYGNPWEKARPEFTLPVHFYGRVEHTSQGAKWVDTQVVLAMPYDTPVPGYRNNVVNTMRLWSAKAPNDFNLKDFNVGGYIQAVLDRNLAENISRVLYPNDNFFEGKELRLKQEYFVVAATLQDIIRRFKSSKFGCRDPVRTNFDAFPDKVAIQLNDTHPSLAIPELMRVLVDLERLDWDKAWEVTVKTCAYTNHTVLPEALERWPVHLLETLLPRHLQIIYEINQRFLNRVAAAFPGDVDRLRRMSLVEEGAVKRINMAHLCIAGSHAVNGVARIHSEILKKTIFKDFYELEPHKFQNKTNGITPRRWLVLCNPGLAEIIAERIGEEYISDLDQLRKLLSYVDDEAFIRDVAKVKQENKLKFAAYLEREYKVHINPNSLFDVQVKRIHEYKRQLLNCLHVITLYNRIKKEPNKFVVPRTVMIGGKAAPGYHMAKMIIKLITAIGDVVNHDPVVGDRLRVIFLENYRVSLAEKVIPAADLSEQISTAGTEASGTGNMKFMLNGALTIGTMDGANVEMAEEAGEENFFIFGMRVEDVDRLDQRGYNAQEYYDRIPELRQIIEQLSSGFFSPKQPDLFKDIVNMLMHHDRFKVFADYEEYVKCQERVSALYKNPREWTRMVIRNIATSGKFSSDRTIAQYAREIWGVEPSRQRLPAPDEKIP
In words: Glycogen phosphorylase assay in vitro (reverse direction, malachite green phosphate detection). The format is biochemical. The note with it: 50 mM Hepes pH 7.2, 7.5 mM glucose, 0.5 mM glucose-1-phosphate, 1 mg/mL glycogen, 30° C. for 30 min. An excerpt: α-D-Glucose-1-phosphate (disodium salt), Glycogen, D-Glucose, Malachite Green Hydrochloride, Ammonium Molybdate tetrahydrate, BSA, HEPES and rabbit muscle phosphorylase α (P1261) were purchased from Sigma. All other reagents were analytical grade.
Glycogen Phosphorylase Assay In Vitro:
An assay for glycogen phosphorylase activity in the reverse direction was developed based on the method described by Engers et al., Can. J. Biochem., 1970, 48, 746-754]. Rabbit muscle glycogen phosphorylase a (Sigma) was reconstituted at a stock concentration of 100 μg/mL in 25 mM Tris/HCl. […] in a 96-well plate in a final volume of 100 μL containing 50 mM Hepes pH 7.2, 7.5 mM glucose, 0.5 mM glucose-1-phosphate and 1 mg/mL glycogen. After incubation at 30° C. for 30 min, the inorganic phosphate released from glucose-1-phosphate was measured by the addition of 150 μL of malachite green/molybdate solution prepared as follows: 5 mL of 4.2% ammonium molybdate in 4N HCl, 15 mL of 0.045% malachite green, 50 μL of Tween 20. Following a 30 min incubation at rt, the absorbance was measured at 620 nm. For IC50 determination, 10 μL of a serial dilution of compound (100 μM to 0.004 μM) in DMSO was added to each reaction in duplicate with the equivalent concentration of DMSO added to the control uninhibited reaction. Dose response curves were then obtained by plotting % inhibition versus log10 compound concentration. IC50 is defined as the concentration of compound achieving 50% inhibition under the assay conditions described.
As a reminder, the pIC50 is the IC50 on a negative log10 scale, so that one unit is a factor of ten. Read a high pIC50 as a low IC50. `O=C(NCCNc1ccccc1)c1cc2ncccc2[nH]1` [Example 26, 1H-Pyrrolo[3,2-b]pyridine-2-carboxylic acid (2-phenylaminoethyl)amide] showed a pIC50 of at most 4.00. The result for `O=C(NCCNCc1ccccc1)c1cc2cc(Cl)ncc2[nH]1` [Example 29, 5-Chloro-1H-pyrrolo[2,3-c]pyridine-2-carboxylic acid (2-benzylaminoethyl)amide] reads at most 4.00; that for `O=C(NCCNc1ccccc1)c1cc2ccncc2[nH]1` [Example 21, 1H-Pyrrolo[2,3-c]pyridine-2-carboxylic acid (2-phenylaminoethyl)amide], at most 4.00. To `O=C(NCCN1CCN(Cc2ccccc2)CC1)c1cc2cc(Cl)ncc2[nH]1` [Example 28, 5-Chloro-1H-pyrrolo[2,3-c]pyridine-2-carboxylic acid [2-(4-benzylpiperazin-1-yl)ethyl]amide] belongs at most 4.00; to `CN(C)C(=O)[C@H](Cc1ccccc1)NC(=O)c1cc2ncccc2[nH]1` [Example 24, 1H-Pyrrolo[3,2-b]pyridine-2-carboxylic acid (1-dimethylcarbamoyl-2-(S)-phenylethyl)amide], at most 4.00; to `COc1ccc2[nH]c(C(=O)N[C@@H](Cc3ccccc3)C(=O)N(C)C)cc2n1` [Example 23, 5-Methoxy-1H-pyrrolo[3,2-b]pyridine-2-carboxylic acid (1-dimethylcarbamoyl-2-(S)-phenylethyl)amide], at most 4.00. `O=C(NCCOc1ccccc1)c1cc2ncccc2[nH]1` [Example 25, 1H-Pyrrolo[3,2-b]pyridine-2-carboxylic acid (2-phenoxyethyl)amide]: the pIC50 was at most 4.00.
